According to patent US8003324B2, “Modulation of sodium channels by nicotinamide adenine dinucleotide” (U.S. Department of Veterans Affairs, priority 2007, dated 2011):
“And” between values parts separate entries of the source, which are not always exact repeats. Equal entries are not always repeated. “Also recorded” adds a separate entry of the source.

Tests used:
HEK 293 cell (SCN5A) = assay type: cell-based; settings: human, 24 h
Protocol: Human embryonic kidney (HEK) cell line was used for all experiments. A HEK cell line stably expressing a SCN5A-IRES-GFP construct as described in our previous study (Arnold et al., Hearth Rhythm 4:46-53 (2007)) was maintained by antibiotic selection using 0.2 mg/mL Geneticin (G-8168, Sigma-Aldrich). Cells were cultured in Dulbecco's modified Eagle's medium (DMEM; ATCC, Manassas, Va.) with 10% fetal calf serum (ATCC) at 37° C. in 60 mm×15 mm cell culture dishes (Corning Incorporated, Corning, N.Y.) until 70-80% confluence. After reaching confluence, cells were exposed to NADH (Sigma, St. Louis, Mo.) or NAD^+ (Sigma) in culture medium for a total of 12-14 h in triplicate. Experiments were repeated three times. After dissociation with 0.125% trypsin-EDTA, 40 μL of 0.4% Trypan-blue (Sigma, St. Louis, Mo.) was added to each well, and a Trypan-blue exclusion viability assay was performed.
As previously described, we maintained a human embryonic kidney (HEK) cell line that stably expresses the human cardiac Na^+ channel (SCN5A) with antibiotic selection using 0.2 mg/mL geneticin (G-8168, Sigma-Aldrich, St. Louis, Mo.) (23). Expression of SCN5A was linked to green fluorescent protein (GFP) expression by an internal ribosomal entry site (SCN5A-IRES-GFP). Cells were cultured in Dulbecco's modified Eagle's medium (DMEM; ATCC, Manassas, Va.) with 10% fetal calf serum (ATCC) at 37° C. in 60 mm×15 mm cell culture dishes (Corning Incorporated, Corning, N.Y.) until 70-80% confluency. Then, cells were exposed to NADH or NAD^+ (both from Sigma-Aldrich) in culture medium for a total of 24 h. After dissociation with 0.125% trypsin-ethylenediaminetetraacetic acid (EDTA), 40 μL of 0.4% Trypan-blue (Sigma) was added to each well of a 6-well plate, and a Trypan-blue exclusion viability assay was performed. SCN5A cells were tolerant of a wide range of NADH or NAD^+ concentrations from 150 to 300 μM (data not shown). […] All NAD(H) containing solutions were made fresh daily.

[1] = test system: human SCN5A fused at the C-terminus to GFP (SCN5A-GFP fusion); assay: Na+ channel tracking (confocal microscopy of SCN5A-GFP fusion in HEK cells); assay type: cell-based
Protocol: An SCN5A constructed fused at the C-Terminus to GFP (SCN5A-GFP fusion) was stably transfected in HEK cells and grown on glass bottom 14 mm microwell dishes (MatTek Corporation, Ashland, Mass., USA). A Nikon (Melville, N.Y.) Diaphot 200 inverted microscope with a fluorescent lamp was used to identify cells expressing GFP. Cells expressing GFP were transiently co-transfected with MT GPD1-L or incubated overnight with NADH. Fixation was performed by washing the coverslip three times with DPBS (Dulbecco's Phosphate Buffered Saline 1× of GIBCO) and exposing them to 4% paraformaldehyde in PBS at pH 7.4. […] GFP fluorescence was observed using a 507 nm narrow bandpass filter and a 60× oil 1.4 NA objective. Quantification was done using ImageJ software.
For these experiments, a construct of human SCN5A fused at the C-terminus to GFP (SCN5A-GFP fusion) was stably transfected in HEK cells and grown on the glass bottom of 14-mm microwell dishes (MatTek Corporation, Ashland, Mass., USA). […] For imaging Na^+ channels, GFP was excited at 488 nm with an argon ion 30 mW water-cooled laser, and GFP fluorescence was observed using a 507 nm narrow bandpass filter and a 60× oil 1.4 NA objective. Quantification was done using ImageJ software.

[2] = molecular target: T1, human cardiac Na^+ channel (SCN5A) (Homo sapiens, UniProt Q14524); assay: Whole-cell patch clamp Na+ current in HEK cells stably expressing SCN5A; assay type: cell-based; settings: for effect on peak Na+ current (in words): versus SCN5A cells
T1 construct: expressed in transfected cells
Protocol: HEK cells stably transfected with two different Na^+ channel constructs were used, SCN5A-IRES-GFP and SCN5A-GFP fusion constructs. Cloning and establishment of the cell lines has been delineated previously (11). The HEK 293 cell line stably expressing a SCN5A-IRES-GFP construct was maintained by antibiotic selection using Geneticin (G-8168, Sigma-Aldrich) at a concentration of 0.2 mg/mL was used for patch clamp study. GFP was used as a marker to identify cells expressing the cardiac Na^+ channel. The cells were cultured in 6 well plates with Dulbecco's Modified Eagle's medium (DMEM), 10% fetal bovine serum and 1% pen-strep. Cells were stored in a 5% CO2 incubator at 37° C. for 1-2 days. GPD1-L (the A280V mutant or wild-type) was transiently co-transfected into HEK 293 cells. GPD1-L vectors have been described in London et al.
The effects of external NADH or NAD^+ on sodium current were determined by incubating HEK 293 cells overnight (12-14 h) with NADH/NAD^+ (300 μM) added to the media. The effects of internal NADH or NAD^+ (100 μM) on sodium current were tested by adding the compounds to the pipette solution.
Cells expressing GFP were tested with the whole cell patch-clamp technique in voltage-clamp mode to measure Na^+ current levels. For patch-clamping, HEK cells were plated onto plastic coverslips 2-3 h before the recordings. Glass pipettes were pulled on a Sutter Model P-97 horizontal puller to a resistance of 1-2 MΩ. The glass pipettes were filled with a pipette solution containing (in mmol/L): CsCl 80, Cesium Aspartate 80, EGTA 11, MgCl2 1, CaCl2 1, HEPES 10, Na2ATP 5 and pH 7.4 with CsOH. The bath solution consisted of (in mmol/L): NaCl 130, CsCl 5, CaCl2 2, MgCl2 1.2, HEPES 10 and Glucose 5 (titrated to pH 7.4 with CsOH). Once a seal was established, a small amount of suction was applied to obtain the whole cell configuration. A stepped voltage protocol from −100 to +60 mV from a holding potential of −100 mV was applied to establish the presence of voltage-gated Na^+ channels. Currents obtained during steps to −10 mV were used for comparison in determining the relative reduction in sodium current. Cells were tested at 25° C. In all recordings, 80% of the series resistance was compensated, yielding a maximum voltage error of ˜1 mV. Data were sampled at 10 kHz and later filtered at 5 kHz for analysis. Currents were recorded and analyzed with an Axopatch 200B amplifier, Axon Digidata 1230A A/D converter and pClamp software (Molecular Devices Corporation, Sunnyvale, Calif.).
Using HEK 293 cells stably expressing the SCN5A-IRES-GFP construct, we measured the effect of treatments on the Na^+ current. Cells were cultured in 6-well plates in a […] incubator at 37° C. WT or MT GPD1-L was transiently transfected into HEK 293 cells as described previously in London et al. Other treatments included extracellular NADH or NAD^+ (300 μM) for […] or NADH or NAD^+ (100 μM) in the patch pipette solution. Apocynin (100 μM, Sigma) was added to cells 4-6 h prior to treatment with NADH and continuing for the entire extracellular NADH incubation. Na^+ current levels were measured from GFP-expressing cells using the whole-cell patch clamp technique in voltage-clamp mode at room temperature. HEK cells were dissociated by trypsin-EDTA, and replated onto plastic coverslips 2-3 h before the recordings. Glass pipettes were pulled on a Sutter Model P-97 horizontal puller to a resistance of 1-2 MΩ. The glass pipettes were filled with a pipette solution containing (in mM): CsCl 80, cesium aspartate 80, EGTA 11, MgCl2 1, CaCl2 1, HEPES 10, and Na2ATP 5 (adjusted to pH 7.4 with CsOH). The bath solution consisted of (in mM): NaCl 130, CsCl 5, CaCl2 2, MgCl2 1.2, HEPES 10 and Glucose 5 (adjusted to pH 7.4 with CsOH). Once a seal was established, a small amount of suction was applied to obtain the whole-cell configuration. […]

SCN5A^+/− mouse heart = assay: Ventricular arrhythmogenesis in Langendorff-perfused SCN5A+/- mouse heart (MAP recording, PES)
Protocol: Hearts from mice genetically modified to ablate one allele of SCN5A were isolated and Langendorff-perfused (3 ml/min at 37° C.) with Krebs-Henseleit solution (in mM: 119 NaCl, 25 NaHCO3, 4 KCl, 1.2 KH2PO4, 1 MgCl2, 1.8 CaCl2, 10 glucose and 2 sodium pyruvate) and allowed to beat intrinsically for 10 min. Monophasic action potentials (MAPs) were recorded using a MAP electrode (Harvard Apparatus, UK) placed on left ventricular epicardial surface. MAP signals were amplified, band-pass filtered (0.5 Hz to 1 kHz: Neurolog NL900D), digitized (1401, Cambridge Electronic Design, Cambridge, UK) and acquired using Spike 2.5 (Cambridge Electronic Design) at a 5 KHz sampling rate. A custom made, paired-platinum electrode was placed on right ventricle and used to deliver 2 ms ([…], twice the threshold) stimuli (GRASS S48 stimulator) to pace the heart at different intervals. The standard pacing protocol consisted of 8 Hz stimuli (basic cycle length, BCL 125 ms) and was delivered for 20 min to measure MAPs. This was followed by programmed electrically stimulation (PES) consisting of trains of eight paced stimuli at 125 ms BCL (S1) followed by an extra stimulus (S2). […] PES was repeated three times before and three times after the drug application in each heart. NAD^+ was perfused for 20 min to assess its anti-arrhythmic effect. Selected recordings were imported to Microsoft Excel for further statistical analysis. Average APD90 (action potential duration) was calculated by averaging 240 MAPs recorded at three different locations on each heart (80 MAPs at each location). These studies were approved by the Institutional Review Board.

[3] = 100 μM intracellular (pipette solution), at 10 min
[4] = 300 μM extracellular, overnight incubation

T1 sequence (Q14524 whole entry): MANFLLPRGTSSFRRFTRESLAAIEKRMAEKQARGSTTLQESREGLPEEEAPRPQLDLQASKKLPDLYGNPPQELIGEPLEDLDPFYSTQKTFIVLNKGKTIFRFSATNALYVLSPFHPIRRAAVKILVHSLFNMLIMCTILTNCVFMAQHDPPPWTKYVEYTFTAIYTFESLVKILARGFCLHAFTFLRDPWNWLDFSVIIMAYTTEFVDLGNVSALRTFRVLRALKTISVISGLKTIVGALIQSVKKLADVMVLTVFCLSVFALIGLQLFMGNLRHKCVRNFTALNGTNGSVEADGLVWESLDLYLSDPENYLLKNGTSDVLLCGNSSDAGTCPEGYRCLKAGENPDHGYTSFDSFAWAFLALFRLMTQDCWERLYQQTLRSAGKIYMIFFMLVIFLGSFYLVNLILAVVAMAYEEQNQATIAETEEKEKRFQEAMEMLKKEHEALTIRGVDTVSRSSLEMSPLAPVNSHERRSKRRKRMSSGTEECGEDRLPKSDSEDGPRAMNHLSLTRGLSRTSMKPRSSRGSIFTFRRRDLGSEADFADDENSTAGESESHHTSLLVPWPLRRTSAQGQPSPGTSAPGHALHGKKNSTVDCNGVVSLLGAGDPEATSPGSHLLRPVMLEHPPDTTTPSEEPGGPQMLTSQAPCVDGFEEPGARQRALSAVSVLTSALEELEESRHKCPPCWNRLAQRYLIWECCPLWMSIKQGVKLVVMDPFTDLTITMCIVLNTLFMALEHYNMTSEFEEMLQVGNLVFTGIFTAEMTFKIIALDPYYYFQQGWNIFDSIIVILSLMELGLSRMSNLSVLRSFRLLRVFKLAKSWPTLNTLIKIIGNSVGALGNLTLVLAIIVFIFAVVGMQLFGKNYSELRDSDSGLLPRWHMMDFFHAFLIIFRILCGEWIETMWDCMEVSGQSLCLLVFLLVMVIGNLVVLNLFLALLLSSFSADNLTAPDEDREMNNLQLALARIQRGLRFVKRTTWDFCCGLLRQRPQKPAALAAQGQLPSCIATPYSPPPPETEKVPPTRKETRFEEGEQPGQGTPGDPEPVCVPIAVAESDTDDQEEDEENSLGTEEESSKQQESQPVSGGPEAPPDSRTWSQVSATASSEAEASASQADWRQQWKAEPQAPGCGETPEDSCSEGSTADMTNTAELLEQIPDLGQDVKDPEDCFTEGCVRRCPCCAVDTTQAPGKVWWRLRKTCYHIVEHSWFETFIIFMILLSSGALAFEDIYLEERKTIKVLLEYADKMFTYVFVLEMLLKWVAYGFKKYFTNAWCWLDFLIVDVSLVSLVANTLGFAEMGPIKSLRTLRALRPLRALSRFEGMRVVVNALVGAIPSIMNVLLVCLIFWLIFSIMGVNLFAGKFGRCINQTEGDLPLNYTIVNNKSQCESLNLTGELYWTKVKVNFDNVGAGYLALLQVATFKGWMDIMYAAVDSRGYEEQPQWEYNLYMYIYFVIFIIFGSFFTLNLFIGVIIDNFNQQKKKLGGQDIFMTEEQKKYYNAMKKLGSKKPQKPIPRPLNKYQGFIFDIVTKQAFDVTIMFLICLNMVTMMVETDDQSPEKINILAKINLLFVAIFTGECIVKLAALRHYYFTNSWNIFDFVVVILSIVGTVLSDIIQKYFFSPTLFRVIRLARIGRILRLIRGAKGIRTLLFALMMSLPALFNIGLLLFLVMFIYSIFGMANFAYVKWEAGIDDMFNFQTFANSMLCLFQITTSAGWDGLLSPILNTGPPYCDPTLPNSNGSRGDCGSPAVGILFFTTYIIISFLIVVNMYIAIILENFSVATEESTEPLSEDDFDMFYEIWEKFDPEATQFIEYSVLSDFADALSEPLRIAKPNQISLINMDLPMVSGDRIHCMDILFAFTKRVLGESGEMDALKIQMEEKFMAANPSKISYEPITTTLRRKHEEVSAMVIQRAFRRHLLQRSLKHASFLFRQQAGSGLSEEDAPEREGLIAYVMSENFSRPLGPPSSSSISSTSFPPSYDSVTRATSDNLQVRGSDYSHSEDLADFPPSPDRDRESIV

Row | SMILES | tolerated concentration range (cell viability) (HEK 293 cell (SCN5A)) | tolerated concentration range (dose-dependent cell viability) (HEK 293 cell (SCN5A)) | reduction in membrane-associated, GFP-tagged Na+ channels ([1]; overnight incubation with NADH, fluorescent microscopy) | decrease in Na+ current (peak current) [2, 3] | decrease in whole cell peak conductance ([2]; 300 μM extracellular, overnight) | decrease in peak Na+ current [2, 4] | hearts in which PES failed to induce VT (SCN5A^+/− mouse heart; SCN5A+/- hearts after 20 min perfusion with 100 μM, VT in 6 out of 6 before) | reversibility: hearts with PES-induced VTs after removal (SCN5A^+/− mouse heart; SCN5A+/- hearts, NAD+ removed) | MAP duration or morphology (SCN5A^+/− mouse heart; perfusion for 20 min with 100 μM) | APD90 (SCN5A^+/− mouse heart; six SCN5A+/- hearts, 20 min perfusion with 100 μM, BCL 125 ms) | effect on Na+ channel protein (GFP fluorescence, in words) ([1]; 300 μM overnight, versus control SCN5A-GFP cells) | effect on Na+ current density (in words) ([2]; 100 μM in internal (pipette) solution, versus SCN5A) | increase in Na+ current (peak current) [2, 3] | effect on peak Na+ current (in words) [2, 4] | effect on peak Na+ current (in words) ([2]; 300 μM extracellular, overnight incubation, listed as NAD+) | increase in whole cell peak conductance ([2]; 300 μM extracellular, overnight, n=9) | effect on the Na+ current reduction caused by MT GPD1-L (A280V) ([2]; SCN5A cells co-transfected with MT GPD1-L, external NAD+ 300 μM) | shift of activation curve ([2]; WT SCN5A cells, versus SCN5A cell) | shift of inactivation curve ([2]; versus SCN5A cell) | effect on the NADH-induced reduction of Na+ current ([2]; apocynin 100 μM added 4-6 h before and during extracellular NADH incubation)
1 | NC(=O)C1=CN([C@@H]2O[C@H](COP(=O)(O)OP(=O)(O)OC[C@H]3O[C@@H](n4cnc5c(N)ncnc54)[C@H](O)[C@@H]3O)[C@@H](O)[C@H]2O)C=CC1 [NADH, nicotinamide adenine dinucleotide] | 150 to 300 µM | 150 to 300 µmol/L | 6.1 fold | 51% and 55.5% | 71.4% | 65.7±6.6% and 74.9% |  |  |  |  |  |  |  |  |  |  |  |  |  | 
2 | NC(=O)c1ccc[n+]([C@H]2O[C@@H](COP(=O)(O)OP(=O)(O)OC[C@@H]3O[C@H](n4cnc5c(N)ncnc54)[C@H](O)C3O)C(O)[C@H]2O)c1 (stereo partly drawn) [NAD^+, nicotinamide adenine dinucleotide] | 150 to 300 µM |  |  |  |  |  | 5 out of 6 | 4 out of 6 and reversible | no significant change | 27.9 ± 1.9 ms | increased GFP fluorescence; also recorded: increases Na^+ channel protein | significantly higher | 77% and 66.6% | increase in peak current; also recorded: increased sodium current | largely restored peak current | 30.3% | prevented the loss of peak current; also recorded: increased Na^+ current at all activation potential; also recorded: reverses the decrease in peak current; also recorded: largely prevented; also recorded: prevent the reduction in Na^+ current | shift more positive | more positive | 
3 | COc1cc(C(C)=O)ccc1O [apocynin, reference compound] |  |  |  |  |  |  |  |  |  |  |  |  |  |  |  |  |  |  |  | abolished the effect of NADH on Na^+ current; also recorded: inhibited the effect of NADH on Na^+ currents
